# Measurements from patent US20240124408A1 (Sanofi, priority 2020, published 2024).
# Key:
# human TRPM8 = target: T1, human TRPM8 (Homo sapiens, UniProt Q7Z2W7); assay: In vitro human TRPM8 fluorescence calcium flux assay (recombinant CHO cells, Fluo4-AM, FDSS6000); format: cell-based; conditions: recombinant CHO cells expressing human TRPM8; menthol-related EC50, normalized to 100 μM menthol
# T1 construct: expressed in transfected cells; host or cells: CHO (p658 mammalian expression vector)
# Procedure: (§1) In Vitro Pig and Human TRPM8 Fluorescence Calcium Flux Assays
# (§2) For functional expression of TRPM8, the full-length cDNA encoding human (NM_024080) and pig (XM_001927892.1) TRPM8 sequences were subcloned into p658 and pcDNA5/FRT/TO mammalian expression vectors, respectively. Engineered recombinant CHO cell lines expressing human or pig TRPM8 were generated. Culture media was Ham-F12 with 10% FCS for both lines, and for the pig cell line only 400 μg/ml hygromycin B and 30 μg/mL blasticidin were added as selection antibiotics (all reagents were obtained from Invitrogen, Fisher Scientific). Cells were grown in culture flasks up to 80% confluence where they were harvested using accutase (Sigma, MO, USA) to detach the cells by enzymatic dissociation and either seeded directly into assay plates or cryopreserved for future use.
# (§3) For calcium flux assays, cells were plated into clear base poly-D-lysine coated 384-well plates (BD Biosciences, NJ USA) at a density of 15,000 cells per well in appropriate culture medium and grown overnight. The following day, all medium was removed then the cells were incubated with 2 μM of Fluo4-AM Dye (Molecular Probes) prepared in complete HBSS assay buffer containing 20 mM HEPES, 0.1% BSA, and 2.5 mM probenecid at room temperature for one hour. Following incubation, plates were inserted into a FDSS6000 instrument (Hamamatsu, Photonics, Japan) instrument, where cells were challenged with compounds of the formula (at varying concentrations) and intracellular calcium was measured kinetically for 3 min after addition.
# (§4) This protocol allowed the determination of an EC50 value, from the sixteen-point dose response data, for each compound of the formula tested. Maximal fluorescence intensity achieved upon addition of 100 μM menthol (stock solution prepared in ethanol from solid, Sigma-Aldrich) was exported from the FDSS and further analyzed using IDBS XLFit 5. Data were normalized to the average 100 μM menthol response (maximum control wells) included in each plate. The dose response curves from the average of wells for each data point were analyzed by using nonlinear regression of sigmoidal dose response (formula 205). Finally, the (menthol-related) EC50 values (Half maximal effective concentration) were calculated with the best-fit dose curve determined by IDBS XLFit 5 software.
# pig TRPM8 = target: T2, pig TRPM8 (Sus scrofa, UniProt F1SM15); assay: In vitro pig TRPM8 fluorescence calcium flux assay (recombinant CHO cells, Fluo4-AM, FDSS6000); format: cell-based; conditions: recombinant CHO cells expressing pig TRPM8; menthol-related EC50, normalized to 100 μM menthol
# T2 construct: expressed in transfected cells; host or cells: CHO (pcDNA5/FRT/TO vector; hygromycin B and blasticidin selection)
# Procedure: as §1, §2, §3, §4
# T1 sequence (Q7Z2W7 whole entry): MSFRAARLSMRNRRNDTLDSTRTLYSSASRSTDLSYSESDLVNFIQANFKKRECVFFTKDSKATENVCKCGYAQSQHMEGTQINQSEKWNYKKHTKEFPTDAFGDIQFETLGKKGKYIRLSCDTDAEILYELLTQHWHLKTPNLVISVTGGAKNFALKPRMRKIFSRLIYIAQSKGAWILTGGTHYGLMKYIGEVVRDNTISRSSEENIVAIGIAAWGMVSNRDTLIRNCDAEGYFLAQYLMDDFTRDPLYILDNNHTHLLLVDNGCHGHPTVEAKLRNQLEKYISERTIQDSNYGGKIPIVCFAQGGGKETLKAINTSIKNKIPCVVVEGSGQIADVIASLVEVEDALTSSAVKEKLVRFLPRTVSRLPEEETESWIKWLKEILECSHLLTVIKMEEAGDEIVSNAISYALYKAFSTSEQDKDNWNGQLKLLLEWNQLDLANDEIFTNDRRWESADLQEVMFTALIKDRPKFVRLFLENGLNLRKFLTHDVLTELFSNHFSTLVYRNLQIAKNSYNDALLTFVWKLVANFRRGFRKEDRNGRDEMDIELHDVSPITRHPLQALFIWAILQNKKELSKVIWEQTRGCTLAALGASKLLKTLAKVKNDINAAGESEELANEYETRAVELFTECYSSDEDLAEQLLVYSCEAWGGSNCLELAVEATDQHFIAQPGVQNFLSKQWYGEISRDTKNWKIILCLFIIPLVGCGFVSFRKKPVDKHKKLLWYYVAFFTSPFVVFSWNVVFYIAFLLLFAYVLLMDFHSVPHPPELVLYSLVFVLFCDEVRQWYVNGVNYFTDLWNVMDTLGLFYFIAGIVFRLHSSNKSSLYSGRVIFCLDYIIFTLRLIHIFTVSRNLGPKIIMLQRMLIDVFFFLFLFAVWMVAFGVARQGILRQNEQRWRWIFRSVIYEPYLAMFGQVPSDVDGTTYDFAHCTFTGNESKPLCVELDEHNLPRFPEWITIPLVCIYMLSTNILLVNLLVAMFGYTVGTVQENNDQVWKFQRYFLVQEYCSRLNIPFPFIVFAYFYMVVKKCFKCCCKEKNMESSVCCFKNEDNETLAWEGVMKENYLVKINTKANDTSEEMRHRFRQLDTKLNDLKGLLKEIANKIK
# T2 sequence (F1SM15 1-1104): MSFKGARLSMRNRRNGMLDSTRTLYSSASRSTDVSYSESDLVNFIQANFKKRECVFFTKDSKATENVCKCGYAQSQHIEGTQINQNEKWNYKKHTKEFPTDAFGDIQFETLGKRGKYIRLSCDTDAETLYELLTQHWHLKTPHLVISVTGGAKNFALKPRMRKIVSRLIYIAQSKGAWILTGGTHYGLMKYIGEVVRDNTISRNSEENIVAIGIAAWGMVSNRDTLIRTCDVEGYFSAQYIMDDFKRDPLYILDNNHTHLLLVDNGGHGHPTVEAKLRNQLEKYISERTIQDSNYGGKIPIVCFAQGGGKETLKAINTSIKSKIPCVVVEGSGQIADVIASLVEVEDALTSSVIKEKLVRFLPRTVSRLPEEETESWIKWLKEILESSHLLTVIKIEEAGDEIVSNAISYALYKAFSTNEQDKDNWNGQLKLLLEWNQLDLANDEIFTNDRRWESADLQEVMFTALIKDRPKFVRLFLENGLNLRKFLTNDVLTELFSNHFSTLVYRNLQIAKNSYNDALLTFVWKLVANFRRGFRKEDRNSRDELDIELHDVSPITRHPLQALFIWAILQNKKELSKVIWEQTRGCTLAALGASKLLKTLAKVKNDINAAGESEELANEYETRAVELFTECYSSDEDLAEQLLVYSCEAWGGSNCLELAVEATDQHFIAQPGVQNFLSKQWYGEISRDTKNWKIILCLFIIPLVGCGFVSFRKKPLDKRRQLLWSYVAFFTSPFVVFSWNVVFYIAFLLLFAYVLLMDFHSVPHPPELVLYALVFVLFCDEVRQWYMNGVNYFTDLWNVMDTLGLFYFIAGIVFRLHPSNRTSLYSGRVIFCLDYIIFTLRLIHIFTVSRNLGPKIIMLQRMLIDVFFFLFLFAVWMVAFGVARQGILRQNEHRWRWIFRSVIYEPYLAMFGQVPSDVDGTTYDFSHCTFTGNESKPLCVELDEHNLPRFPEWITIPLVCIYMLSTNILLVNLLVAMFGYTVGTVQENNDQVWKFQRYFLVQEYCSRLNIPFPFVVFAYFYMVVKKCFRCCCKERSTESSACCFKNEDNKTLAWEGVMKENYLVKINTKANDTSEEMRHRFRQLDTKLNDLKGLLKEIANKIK
EC50 (human TRPM8) [nM],EC50 (pig TRPM8) [nM],Compound
110,99.1,"COc1ccc(C(=O)CNC(=O)[C@]2(O)C[C@H](C)CC[C@H]2C(C)C)c(OC)c1 [Example 99, (1S,2S,5R)—N-(2-(2,4-dimethoxyphenyl)-2-oxoethyl)-1-hydroxy-2-isopropyl-5-methylcyclohexane-1-carboxamide]"
2.2,2.9,"CC(C)[C@@H]1CC[C@@H](C)C[C@@]1(O)C(=O)NCC(=O)c1ccc(O)c(O)c1 [Example 100, (1S,2S,5R)—N-(2-(3,4-dihydroxyphenyl)-2-oxoethyl)-1-hydroxy-2-isopropyl-5-methylcyclohexane-1-carboxamide]"
376,174,"CC(C)[C@@H]1CC[C@@H](C)C[C@@]1(O)C(=O)NCC1(c2cccc(COC3CCCCO3)c2)COC1 (stereo partly drawn) [Example 101, (1S,2S,5R)-1-hydroxy-2-isopropyl-5-methyl-N-((3-(3-(((tetrahydro-2H-pyran-2-yl)oxy)methyl)phenyl)oxetan-3-yl)methyl)cyclohexane-1-carboxamide]"
42,69,"CC(C)[C@@H]1CC[C@@H](C)C[C@@]1(O)C(=O)NCC(=O)c1ccc(O)cc1O [Example 102, (1S,2S,5R)—N-(2-(2,4-dihydroxyphenyl)-2-oxoethyl)-1-hydroxy-2-isopropyl-5-methylcyclohexane-1-carboxamide]"
18.8,14.9,"CC(C)[C@@H]1CC[C@@H](C)C[C@@]1(O)C(=O)NCC1CCOc2ccccc21 (stereo partly drawn) [Example 103, (1S,2S,5R)—N-(chroman-4-ylmethyl)-1-hydroxy-2-isopropyl-5-methylcyclohexane-1-carboxamide]"
1.1,0.6,"CC(C)[C@@H]1CC[C@@H](C)C[C@@]1(O)C(=O)NCC(=O)c1cccc(O)c1O [Example 104, (1S,2S,5R)—N-(2-(2,3-dihydroxyphenyl)-2-oxoethyl)-1-hydroxy-2-isopropyl-5-methylcyclohexane-1-carboxamide]"
30.8,28.4,"CC(C)[C@@H]1CC[C@@H](C)C[C@@]1(O)C(=O)NCCc1cccc(C(=O)OC[C@H](C)O)c1 [Example 105, (S)-2-hydroxypropyl 3-(2-((1S,2S,5R)-1-hydroxy-2-isopropyl-5-methylcyclohexane-1-carboxamido)ethyl)benzoate]"
1580,892,"CC(C)[C@@H]1CC[C@@H](C)C[C@@]1(O)C(=O)NC1CCOC1=O (stereo partly drawn) [Example 112, (1S,2S,5R)-1-hydroxy-2-isopropyl-5-methyl-N-(2-oxotetrahydrofuran-3-yl)cyclohexane-1-carboxamide]"
59.8,28.2,"COc1cc(CCNC(=O)[C@]2(O)C[C@H](C)CC[C@H]2C(C)C)ccc1O [Example 114, (1S,2S,5R)-1-hydroxy-N-[2-(4-hydroxy-3-methoxy-phenyl)ethyl]-2-isopropyl-5-methyl-cyclohexanecarboxamide]"
786,362,"COc1cccc(CCNC(=O)[C@]2(O)C[C@H](C)CC[C@H]2C(C)C)c1OC [Example 115, (1S,2S,5R)-N-[2-(2,3-dimethoxyphenyl)ethyl]-1-hydroxy-2-isopropyl-5-methyl-cyclohexanecarboxamide]"
557,264,"CC(C)[C@@H]1CC[C@@H](C)C[C@@]1(O)C(=O)NCCc1ccc(S(N)(=O)=O)cc1 [Example 118, (1S,2S,5R)-1-hydroxy-2-isopropyl-5-methyl-N-[2-(4-sulfamoylphenyl)ethyl]cyclohexanecarboxamide]"
18.7,4.9,"COc1ccc(C(=O)CNC(=O)[C@]2(O)C[C@H](C)CC[C@H]2C(C)C)cc1 [Example 121, (1S,2S,5R)-1-hydroxy-2-isopropyl-N-[2-(4-methoxyphenyl)-2-oxo-ethyl]-5-methyl-cyclohexanecarboxamide]"
334,229,"COc1cc(CCNC(=O)[C@]2(O)C[C@H](C)CC[C@H]2C(C)C)cc(OC)c1 [Example 123, (1S,2S,5R)-N-[2-(3,5-dimethoxyphenyl)ethyl]-1-hydroxy-2-isopropyl-5-methyl-cyclohexanecarboxamide]"
92.5,25.7,"COc1ccc(CCNC(=O)[C@]2(O)C[C@H](C)CC[C@H]2C(C)C)cc1O [Example 126, (1S,2S,5R)-1-hydroxy-N-[2-(3-hydroxy-4-methoxy-phenyl)ethyl]-2-isopropyl-5-methyl-cyclohexanecarboxamide]"
359,152,"Cc1cccnc1CCNC(=O)[C@]1(O)C[C@H](C)CC[C@H]1C(C)C [Example 127, (1S,2S,5R)-1-hydroxy-2-isopropyl-5-methyl-N-[2-(3-methyl-2-pyridyl)ethyl]cyclohexanecarboxamide]"
303,212,"COc1ccc(OC)c(CCNC(=O)[C@]2(O)C[C@H](C)CC[C@H]2C(C)C)c1 [Example 128, (1S,2S,5R)-N-[2-(2,5-dimethoxyphenyl)ethyl]-1-hydroxy-2-isopropyl-5-methyl-cyclohexanecarboxamide]"
433,185,"COc1cc(CCNC(=O)[C@]2(O)C[C@H](C)CC[C@H]2C(C)C)cc(OC)c1O [Example 130, (1S,2S,5R)-1-hydroxy-N-[2-(4-hydroxy-3,5-dimethoxy-phenyl)ethyl]-2-isopropyl-5-methyl-cyclohexanecarboxamide]"
603,267,"CC(C)[C@@H]1CC[C@@H](C)C[C@@]1(O)C(=O)NCCc1cnccn1 [Example 131, (1S,2S,5R)-1-hydroxy-2-isopropyl-5-methyl-N-(2-pyrazin-2-ylethyl)cyclohexanecarboxamide]"
303,79.1,"CC(C)[C@@H]1CC[C@@H](C)C[C@@]1(O)C(=O)NCC(=O)OCc1ccccc1 [Example 132, benzyl 2-[[(1S,2S,5R)-1-hydroxy-2-isopropyl-5-methyl-cyclohexanecarbonyl]amino]acetate]"
140,72.2,"CC(C)[C@@H]1CC[C@@H](C)C[C@@]1(O)C(=O)NCCc1cccc(S(N)(=O)=O)c1 [Example 133, (1S,2S,5R)-1-hydroxy-2-isopropyl-5-methyl-N-[2-(3-sulfamoylphenyl)ethyl]cyclohexanecarboxamide]"
3.4,1.3,"CC(C)[C@@H]1CC[C@@H](C)C[C@@]1(O)C(=O)NCC(=O)c1ccc(Cl)cc1 [Example 134, (1S,2S,5R)-N-[2-(4-chlorophenyl)-2-oxo-ethyl]-1-hydroxy-2-isopropyl-5-methyl-cyclohexanecarboxamide]"
2.1,1.1,"CC(C)[C@@H]1CC[C@@H](C)C[C@@]1(O)C(=O)NCC(=O)c1ccc(F)cc1 [Example 135, (1S,2S,5R)-N-[2-(4-fluorophenyl)-2-oxo-ethyl]-1-hydroxy-2-isopropyl-5-methyl-cyclohexanecarboxamide]"
125,41.6,"CC(C)[C@@H]1CC[C@@H](C)C[C@@]1(O)C(=O)NCC(=O)c1ccc(Cl)cc1Cl [Example 137, (1S,2S,5R)-N-[2-(2,4-dichlorophenyl)-2-oxo-ethyl]-1-hydroxy-2-isopropyl-5-methyl-cyclohexanecarboxamide]"
3.8,1.7,"CC(C)[C@@H]1CC[C@@H](C)C[C@@]1(O)C(=O)NCC(=O)c1cc(F)cc(F)c1 [Example 138, (1S,2S,5R)-N-[2-(3,5-difluorophenyl)-2-oxo-ethyl]-1-hydroxy-2-isopropyl-5-methyl-cyclohexanecarboxamide]"
5.3,1.7,"CC(C)[C@@H]1CC[C@@H](C)C[C@@]1(O)C(=O)NCC(=O)c1cc(F)ccc1F [Example 139, (1S,2S,5R)-N-[2-(2,5-difluorophenyl)-2-oxo-ethyl]-1-hydroxy-2-isopropyl-5-methyl-cyclohexanecarboxamide]"
9.4,3.3,"CC(C)[C@@H]1CC[C@@H](C)C[C@@]1(O)C(=O)NCC(=O)c1ccccc1Cl [Example 140, (1S,2S,5R)-N-[2-(2-chlorophenyl)-2-oxo-ethyl]-1-hydroxy-2-isopropyl-5-methyl-cyclohexanecarboxamide]"
2.7,1.2,"Cc1cccc(C(=O)CNC(=O)[C@]2(O)C[C@H](C)CC[C@H]2C(C)C)c1 [Example 141, (1S,2S,5R)-1-hydroxy-2-isopropyl-5-methyl-N-[2-(m-tolyl)-2-oxo-ethyl]cyclohexanecarboxamide]"
